# Results published in patent US5807535A, “Metal complexes of hydroxyaryl containing aminocarboxylic acid chelating agents” (Australian Nuclear Science & Technology Organisation, priority 1992, dated 1998).
# Tests used:
# [1] = Biodistribution of 99mTc complexes in mice; assay type: in vivo, Balb/c mice
# Source text: A series of derivatives incorporating carboxyl and phenolate donor groups (1-6) were synthesised by literature method and their radiolabelling characteristic and biological behaviour evaluated. Initial work involved an investigation of radiochemical properties of the ^99m Tc complexes of the ligands and their biodistribution in rats and mice (see Tables 1-6 and 8-12).
# A typical method of radiolabelling of the chelator was achieved by dissolving the chelator in a basic solution of saline. The pH was then adjusted to approx. 6 with HCl. Excess stannous chloride was added to the resultant solution followed by one equivalent volume of sodium ^99m TcO4 (10-50 mCi/ml). Final concentration of the chelator was approx. 1 mg/ml. The efficacy of labelling was determined by ITLC-SG. For each product only one main radiochemical species was observed. Each complex was diluted to 15 μCi/100 μl with saline. […] (See FIGS. 1A and 1B).
# [2] = Effect of pH on radiolabelling ligand (5) with 64/67Cu; assay type: physicochemical
# Description: Radiolabelling with ^64/67 Cu was investigated with ligand (5) over a range of pHs (see Table B). Conditions employed are similar to that reported above for where the ^64/67 Cu in appropriate buffer was added directly to a buffered solution of ligand (5). Rate and percent of complexation was monitored over time by ITLC-SG. Mobile phase employed was methanol:water:ammonia (9:1: trace amounts). The copper complex moves with the solvent front while the free copper is retained at the origin.
compound,measurement,setting,value
CC(C)(C)c1ccc(O)c(NC(=O)CN(CCN(CC(=O)O)CC(=O)Nc2cc(C(C)(C)C)ccc2O)CC(=O)O)c1 [Compound 4],biodistribution GIT,[1]; 1 min,3.96 % Injected dose
same,biodistribution bladder,[1]; 1 min,0.06 % Injected dose
same,biodistribution blood,[1]; 1 min,34.01 % Injected dose
same,biodistribution bone,[1]; 1 min,6.4 % Injected dose
same,biodistribution heart,[1]; 1 min,0.6 % Injected dose
same,biodistribution kidney,[1]; 1 min,7.83 % Injected dose
same,biodistribution liver,[1]; 1 min,31.82 % Injected dose
same,biodistribution lungs,[1]; 1 min,1.29 % Injected dose
same,biodistribution muscle,[1]; 1 min,11.85 % Injected dose
same,biodistribution skin,[1]; 1 min,8.94 % Injected dose
same,biodistribution spleen,[1]; 1 min,0.21 % Injected dose
same,biodistribution stomach,[1]; 1 min,0.52 % Injected dose
same,biodistribution tail,[1]; 1 min,4.62 % Injected dose
same,biodistribution urine,[1]; 1 min,0 % Injected dose
same,biodistribution GIT,[1]; 3 min,8.34 % Injected dose
same,biodistribution bladder,[1]; 3 min,0.09 % Injected dose
same,biodistribution blood,[1]; 3 min,12.06 % Injected dose
same,biodistribution bone,[1]; 3 min,2.5 % Injected dose
same,biodistribution heart,[1]; 3 min,0.22 % Injected dose
same,biodistribution kidney,[1]; 3 min,6.27 % Injected dose
same,biodistribution liver,[1]; 3 min,40.23 % Injected dose
same,biodistribution lungs,[1]; 3 min,0.56 % Injected dose
same,biodistribution muscle,[1]; 3 min,9.92 % Injected dose
same,biodistribution skin,[1]; 3 min,9.02 % Injected dose
same,biodistribution spleen,[1]; 3 min,0.12 % Injected dose
same,biodistribution stomach,[1]; 3 min,0.61 % Injected dose
same,biodistribution tail,[1]; 3 min,2.02 % Injected dose
same,biodistribution urine,[1]; 3 min,0.84 % Injected dose
same,biodistribution GIT,[1]; 5 min,13.7 % Injected dose
same,biodistribution bladder,[1]; 5 min,0.04 % Injected dose
same,biodistribution blood,[1]; 5 min,7.87 % Injected dose
same,biodistribution bone,[1]; 5 min,2.84 % Injected dose
same,biodistribution heart,[1]; 5 min,0.16 % Injected dose
same,biodistribution kidney,[1]; 5 min,4.18 % Injected dose
same,biodistribution liver,[1]; 5 min,30.24 % Injected dose
same,biodistribution lungs,[1]; 5 min,0.68 % Injected dose
same,biodistribution muscle,[1]; 5 min,7.77 % Injected dose
same,biodistribution skin,[1]; 5 min,8.67 % Injected dose
same,biodistribution spleen,[1]; 5 min,0.1 % Injected dose
same,biodistribution stomach,[1]; 5 min,3.96 % Injected dose
same,biodistribution tail,[1]; 5 min,4.63 % Injected dose
same,biodistribution urine,[1]; 5 min,1.55 % Injected dose
same,biodistribution GIT,[1]; 10 min,33.63 % Injected dose
same,biodistribution bladder,[1]; 10 min,0.17 % Injected dose
same,biodistribution blood,[1]; 10 min,5.04 % Injected dose
same,biodistribution bone,[1]; 10 min,2.08 % Injected dose
same,biodistribution heart,[1]; 10 min,0.13 % Injected dose
same,biodistribution kidney,[1]; 10 min,3.57 % Injected dose
same,biodistribution liver,[1]; 10 min,21.19 % Injected dose
same,biodistribution lungs,[1]; 10 min,0.52 % Injected dose
same,biodistribution muscle,[1]; 10 min,4.95 % Injected dose
same,biodistribution skin,[1]; 10 min,7.3 % Injected dose
same,biodistribution spleen,[1]; 10 min,0.07 % Injected dose
same,biodistribution stomach,[1]; 10 min,0.7 % Injected dose
same,biodistribution tail,[1]; 10 min,3.58 % Injected dose
same,biodistribution urine,[1]; 10 min,4.27 % Injected dose
same,biodistribution GIT,[1]; 30 min,39.97 % Injected dose
same,biodistribution bladder,[1]; 30 min,0.08 % Injected dose
same,biodistribution blood,[1]; 30 min,3.88 % Injected dose
same,biodistribution bone,[1]; 30 min,1.67 % Injected dose
same,biodistribution heart,[1]; 30 min,0.05 % Injected dose
same,biodistribution kidney,[1]; 30 min,3.67 % Injected dose
same,biodistribution liver,[1]; 30 min,12.48 % Injected dose
same,biodistribution lungs,[1]; 30 min,0.26 % Injected dose
same,biodistribution muscle,[1]; 30 min,3.35 % Injected dose
same,biodistribution skin,[1]; 30 min,4 % Injected dose
same,biodistribution spleen,[1]; 30 min,0.06 % Injected dose
same,biodistribution stomach,[1]; 30 min,4.84 % Injected dose
same,biodistribution tail,[1]; 30 min,1.91 % Injected dose
same,biodistribution urine,[1]; 30 min,3.21 % Injected dose
Nc1ccc(O)c(NC(=O)CN(CCN(CC(=O)O)CC(=O)Nc2cc(N)ccc2O)CC(=O)O)c1 [Compound 5],biodistribution bone,[1]; 1 min,6.02 % Injected dose
same,biodistribution kidney,[1]; 1 min,9.08 % Injected dose
same,biodistribution liver,[1]; 1 min,5.72 % Injected dose
same,biodistribution muscle,[1]; 1 min,23.78 % Injected dose
same,biodistribution skin,[1]; 1 min,18.09 % Injected dose
same,biodistribution spleen,[1]; 1 min,0.14 % Injected dose
same,biodistribution urine,[1]; 1 min,0 % Injected dose
same,biodistribution kidney,[1]; 3 min,8.71 % Injected dose
same,biodistribution liver,[1]; 3 min,5.04 % Injected dose
same,biodistribution muscle,[1]; 3 min,15.39 % Injected dose
same,biodistribution skin,[1]; 3 min,19.66 % Injected dose
same,biodistribution spleen,[1]; 3 min,0.16 % Injected dose
same,biodistribution urine,[1]; 3 min,2.97 % Injected dose
same,biodistribution kidney,[1]; 5 min,6.71 % Injected dose
same,biodistribution liver,[1]; 5 min,4.34 % Injected dose
same,biodistribution muscle,[1]; 5 min,11.74 % Injected dose
same,biodistribution skin,[1]; 5 min,19.83 % Injected dose
same,biodistribution spleen,[1]; 5 min,0.12 % Injected dose
same,biodistribution urine,[1]; 5 min,6.52 % Injected dose
same,biodistribution kidney,[1]; 10 min,5.97 % Injected dose
same,biodistribution liver,[1]; 10 min,5.34 % Injected dose
same,biodistribution muscle,[1]; 10 min,9.67 % Injected dose
same,biodistribution skin,[1]; 10 min,23.93 % Injected dose
same,biodistribution spleen,[1]; 10 min,0.11 % Injected dose
same,biodistribution urine,[1]; 10 min,10.66 % Injected dose
same,biodistribution kidney,[1]; 30 min,3.75 % Injected dose
same,biodistribution liver,[1]; 30 min,2.86 % Injected dose
same,biodistribution muscle,[1]; 30 min,23.84 % Injected dose
same,biodistribution skin,[1]; 30 min,17.37 % Injected dose
same,biodistribution spleen,[1]; 30 min,0.06 % Injected dose
same,biodistribution urine,[1]; 30 min,5.91 % Injected dose
same,rate of complexation,[2]; all pHs (pH 3.0-10.0),complete within the first minute
same,complexation maintained for upto,[2]; pH 3.0-10.0,≤ 2 h
O=C(O)CN(CCN(CC(=O)O)CC(=O)Nc1ccc(Cl)cc1O)CC(=O)Nc1ccc(Cl)cc1O [Compound 2],biodistribution GIT,[1]; 1 min,3.74 % Injected dose
same,biodistribution blood,[1]; 1 min,23.14 % Injected dose
same,biodistribution bone,[1]; 1 min,7.88 % Injected dose
same,biodistribution heart,[1]; 1 min,0.49 % Injected dose
same,biodistribution kidney,[1]; 1 min,8.04 % Injected dose
same,biodistribution liver,[1]; 1 min,14.68 % Injected dose
same,biodistribution lungs,[1]; 1 min,1.36 % Injected dose
same,biodistribution muscle,[1]; 1 min,19.67 % Injected dose
same,biodistribution skin,[1]; 1 min,13.37 % Injected dose
same,biodistribution spleen,[1]; 1 min,0.19 % Injected dose
same,biodistribution stomach,[1]; 1 min,0.67 % Injected dose
same,biodistribution tail,[1]; 1 min,4.05 % Injected dose
same,biodistribution urine,[1]; 1 min,0.09 % Injected dose
same,biodistribution GIT,[1]; 3 min,4.86 % Injected dose
same,biodistribution blood,[1]; 3 min,14.96 % Injected dose
same,biodistribution bone,[1]; 3 min,6.29 % Injected dose
same,biodistribution heart,[1]; 3 min,0.34 % Injected dose
same,biodistribution kidney,[1]; 3 min,10.44 % Injected dose
same,biodistribution liver,[1]; 3 min,14.52 % Injected dose
same,biodistribution lungs,[1]; 3 min,1.19 % Injected dose
same,biodistribution muscle,[1]; 3 min,14.89 % Injected dose
same,biodistribution skin,[1]; 3 min,13.1 % Injected dose
same,biodistribution spleen,[1]; 3 min,0.16 % Injected dose
same,biodistribution stomach,[1]; 3 min,0.998 % Injected dose
same,biodistribution tail,[1]; 3 min,6.89 % Injected dose
same,biodistribution urine,[1]; 3 min,2.78 % Injected dose
same,biodistribution GIT,[1]; 5 min,3.38 % Injected dose
same,biodistribution blood,[1]; 5 min,7.4 % Injected dose
same,biodistribution bone,[1]; 5 min,2.99 % Injected dose
same,biodistribution heart,[1]; 5 min,0.22 % Injected dose
same,biodistribution kidney,[1]; 5 min,5.45 % Injected dose
same,biodistribution liver,[1]; 5 min,7.75 % Injected dose
same,biodistribution lungs,[1]; 5 min,0.72 % Injected dose
same,biodistribution muscle,[1]; 5 min,6.73 % Injected dose
same,biodistribution skin,[1]; 5 min,7.96 % Injected dose
same,biodistribution spleen,[1]; 5 min,0.07 % Injected dose
same,biodistribution stomach,[1]; 5 min,0.6 % Injected dose
same,biodistribution tail,[1]; 5 min,30.12 % Injected dose
same,biodistribution urine,[1]; 5 min,1.06 % Injected dose
same,biodistribution GIT,[1]; 10 min,8.11 % Injected dose
same,biodistribution blood,[1]; 10 min,7.15 % Injected dose
same,biodistribution bone,[1]; 10 min,2.76 % Injected dose
same,biodistribution heart,[1]; 10 min,0.15 % Injected dose
same,biodistribution kidney,[1]; 10 min,5.14 % Injected dose
same,biodistribution liver,[1]; 10 min,7.95 % Injected dose
same,biodistribution lungs,[1]; 10 min,0.53 % Injected dose
same,biodistribution muscle,[1]; 10 min,8.73 % Injected dose
same,biodistribution skin,[1]; 10 min,11.02 % Injected dose
same,biodistribution spleen,[1]; 10 min,0.06 % Injected dose
same,biodistribution stomach,[1]; 10 min,1.3 % Injected dose
same,biodistribution tail,[1]; 10 min,18.31 % Injected dose
same,biodistribution urine,[1]; 10 min,2.67 % Injected dose
same,biodistribution GIT,[1]; 30 min,16.24 % Injected dose
same,biodistribution blood,[1]; 30 min,3.58 % Injected dose
same,biodistribution bone,[1]; 30 min,2.27 % Injected dose
same,biodistribution heart,[1]; 30 min,0.09 % Injected dose
same,biodistribution kidney,[1]; 30 min,4 % Injected dose
same,biodistribution liver,[1]; 30 min,5.71 % Injected dose
same,biodistribution lungs,[1]; 30 min,0.43 % Injected dose
same,biodistribution muscle,[1]; 30 min,5.48 % Injected dose
same,biodistribution skin,[1]; 30 min,5.58 % Injected dose
same,biodistribution spleen,[1]; 30 min,0.05 % Injected dose
same,biodistribution stomach,[1]; 30 min,2.06 % Injected dose
same,biodistribution tail,[1]; 30 min,7.67 % Injected dose
same,biodistribution urine,[1]; 30 min,3.84 % Injected dose
